In ChEMBL document CHEMBL5126565, “Discovery of (2-phenylthiazol-4-yl)urea derivatives that induce neuronal differentiation from mesenchymal stem cells” (Bioorg Med Chem Lett, 2022):
Activity calls are given as the source filed them. The rule behind the calls is not given here.

Legend:
[1] = Induction of neural differentiation in human derived mesenchymal stem cells assessed as neuron formation at 5 uM measured TuJI expression by immunohistochemical analysis relative to control; type: functional
Mesenchymal stem cells [2] = assay: Effect on cell cycle progression in human derived mesenchymal stem cells upto 20 uM measured after 4 days; type: toxicity, cell-based; conditions: 96 h, time 4 day
Mesenchymal stem cells [3] = assay: Cytotoxicity against human derived mesenchymal stem cells assessed as cell viability upto 20 uM measured after 4 days; type: toxicity, cell-based; conditions: 96 h, time 4 day
[4] = Solubility of compound in culture media; type: physicochemical
Mesenchymal stem cells [5] = assay: Induction of neural differentiation in human derived mesenchymal stem cells assessed as neuron formation measured TuJI expression by immunohistochemical analysis; type: functional, cell-based; conditions: dose 2-5 µM

Row | solubility [4] | SMILES | fold change (FC) [1] | Activity (Mesenchymal stem cells [2]) | Activity (Mesenchymal stem cells [3]) | Activity (Mesenchymal stem cells [5]; DDE = dose-dependent effect) | Activity (Mesenchymal stem cells [5])
1 | Soluble | O=C(NCc1csc(-c2ccccc2)n1)N1CCOCC1 | 2 | Non-Toxic | Non-Toxic | Dde | –
2 | Soluble | CN1CCN(C(=O)NCc2csc(-c3ccccc3)n2)CC1 | – | Non-Toxic | Non-Toxic | – | Active
